For the assay, the system named is tyrosinase. The assay is described as follows: tyrosinase activity, colorimetric reaction with L-DOPA substrate (absorbance 475 nm). In kind it is biochemical. Here is the method:
The aim of this test is to model the activity of an enzyme, tyrosinase (the enzyme responsible for melanin formation) using an experimental design and to determine the influence of flavanol monomers and ε-viniferin on enzymatic activity with respect to a specific substrate (L-DOPA). Tyrosinase activity was measured in vitro using a colorimetric reaction. Under the action of tyrosinase, L-DOPA is oxidized and converted into dopaquinone. The formation of dopaquinone can thus be monitored by spectrometry at 475 nm.
In a 96-well plate, the following amounts were deposited in each well: 80 μl phosphate buffer (50 mM), 40 μl of sample to be tested or buffer, 40 μl of tyrosinase at 125 U/ml. At the last moment, 40 μl of L-DOPA (2.5 mM) was added to initiate the reaction and then absorbance at 475 nm was monitored for 25 min.
For each well, the absorbance values over time (Ax) are normalized relative to the first absorbance measurement (AT0) according to the following formula: Normalized absorbance (An)=Ax−AT0. The normalized absorbances are then corrected (for each time) according to the following formula: Corrected normalized absorbance (Anc)=An−ACLT, where ACLT is the value of the normalized absorbance of the reagents in the presence of the sample (buffer+tyrosinase+sample). […]
To this end, tyrosinase activity was monitored and measured in vitro using the colorimetric reaction described above. […]

`Oc1ccc(/C=C/c2cc(O)cc3c2[C@@H](c2cc(O)cc(O)c2)[C@H](c2ccc(O)cc2)O3)cc1` [ε-viniferin]: the “effect on tyrosinase activity with respect to the L-DOPA substrate” value (experimental design: flavanol monomers 1-50 μM, ε-viniferin 0.0050-0.05 μM, response at 7 min) was “no significant effect”. Besides, the “Estimated Coefficient (coded factors) of the model of corrected normalized absorbance” value (linear-quadratic model, central composite design, negative = reduces tyrosinase activity) is −0.0045.

The values are drawn from patent US20240115647A1, “COMPOSITION COMPRISING FLAVANOL MONOMERS AND E-VINIFERIN” (ACTIV'INSIDE, priority 2020, published 2024).
